The source of these data is article PMC10840383, “Clinical features, functional consequences, and rescue pharmacology of missense GRID1 and GRID2 human variants” (Human Molecular Genetics, 2023).

Structures are written as SMILES.

This assay addresses T1, GluD1-S647F (Homo sapiens, UniProt Q9ULK0, S647F).
T1 construct: expressed in transfected cells; host or cells: Xenopus laevis oocytes injected with cRNA
T1 sequence (Q9ULK0 21-1009 S647F): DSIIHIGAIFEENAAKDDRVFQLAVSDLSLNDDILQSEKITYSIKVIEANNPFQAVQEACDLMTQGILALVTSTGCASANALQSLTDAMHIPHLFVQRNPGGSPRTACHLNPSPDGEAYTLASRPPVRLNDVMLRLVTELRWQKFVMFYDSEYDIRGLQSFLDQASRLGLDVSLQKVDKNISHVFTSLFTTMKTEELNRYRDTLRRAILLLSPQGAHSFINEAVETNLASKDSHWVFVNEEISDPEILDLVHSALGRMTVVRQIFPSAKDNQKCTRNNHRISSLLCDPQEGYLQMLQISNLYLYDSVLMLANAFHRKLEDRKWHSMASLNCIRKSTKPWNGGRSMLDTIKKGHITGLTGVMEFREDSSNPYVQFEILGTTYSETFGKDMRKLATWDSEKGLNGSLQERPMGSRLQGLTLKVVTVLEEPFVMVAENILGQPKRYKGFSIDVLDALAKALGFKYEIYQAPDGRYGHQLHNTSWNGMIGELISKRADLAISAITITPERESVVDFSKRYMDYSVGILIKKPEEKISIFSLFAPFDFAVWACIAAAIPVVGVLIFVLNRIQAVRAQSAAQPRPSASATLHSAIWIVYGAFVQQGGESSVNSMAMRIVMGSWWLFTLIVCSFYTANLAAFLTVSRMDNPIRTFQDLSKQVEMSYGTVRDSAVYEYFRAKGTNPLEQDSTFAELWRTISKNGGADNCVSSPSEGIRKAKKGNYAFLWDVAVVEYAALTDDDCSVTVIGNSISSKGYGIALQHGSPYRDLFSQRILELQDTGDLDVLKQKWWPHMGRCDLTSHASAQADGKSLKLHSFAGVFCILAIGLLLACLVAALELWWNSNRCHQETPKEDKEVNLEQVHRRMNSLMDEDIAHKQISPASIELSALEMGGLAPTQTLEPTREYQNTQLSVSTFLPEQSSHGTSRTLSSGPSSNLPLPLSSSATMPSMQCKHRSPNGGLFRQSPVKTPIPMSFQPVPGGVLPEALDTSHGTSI
In words: TEVC of constitutive current, Xenopus oocytes expressing GluD1-S647F. In kind it is cell-based. Particulars: positive = increase, negative = decrease of activity.

As for `N[C@H](CO)C(=O)O` [D-serine], for the setting “10 mM D-serine”, the “D-Serine effect (Baseline −10 mM D-Serine)” value is on record as 14 ± 3.8 (10) nA. As to `N=C(N)c1ccc(OCCCCCOc2ccc(C(=N)N)cc2)cc1` [Pentamidine, pentamidine], the “Pentamidine effect (Baseline −100 μM Pentamidine)” value (100 μM pentamidine) is listed as −47 ± 11 (10) nA.
